Data on 26 compounds can be found in patent US20200069691A1, “HETEROCYCLIC COMPOUNDS AS HIV PROTEASE INHIBITORS” (Merck Sharp & Dohme Corp., priority 2016, published 2020).

For this experiment, the target named is T1, wild-type HIV-1 protease (Human immunodeficiency virus type 1 group M subtype B, UniProt P04585).
T1 construct: Escherichia coli expressed wild-type HIV-1 protease protein
Briefly: Assay for Inhibition of Microbial Expressed HIV Protease (peptide substrate cleavage, LC-MS/MS readout). As to conditions: E. coli expressed wild-type HIV-1 protease, mean of at least two independent experiments, read-out: HIV Pr Enzyme HIV1 PR IC50. The class given is biochemical. A digest of the protocol:
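E. coli-expressed wild-type HIV-1 protease ([…]) was preincubated with inhibitor 30 min at room temperature in pH 5.5 acetate buffer (100 mM NaCl, 0.1% BSA). Then 400 μM octapeptide substrate was added and reacted 1 h at 30 °C; inhibition came from LC-MS/MS product peak areas, mean of ≥2 experiments.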
One may read the IC50 as the concentration that inhibits the measured activity by half. `CC(C)CCC1(c2ccccc2)NC(=N)N(Cc2ccc(C(F)(F)F)c(C(=O)N3Cc4cnc(C#N)nc4C3)c2)C1=O` (centres unmarked) [Compound 148, 6-{[5-{[2-imino-4-(3-methylbutyl)-5-oxo-4-phenylimidazolidin-1-yl]methyl}-2-(trifluoromethyl)phenyl]carbonyl}-6,7-dihydro-5H-pyrrolo[3,4-d]pyrimidine-2-carbonitrile]: the IC50 stood at 5.21 nM.

As for `CC(C)CCC1(c2ccc(F)cc2)NC(=N)N(Cc2ccc(C(F)(F)F)c(C(=O)N3C[C@@H]4ON=C(Nc5ccccc5)[C@@H]4C3)c2)C1=O` (some centres unmarked) [Compound 175], the half-maximal inhibitory concentration (IC50) stood at 59.7 nM. Under `Cc1cccc(-c2ncc3c(n2)CN(C(=O)c2cc(CN4C(=N)N[C@](CCCC(F)(F)F)(c5ccc(F)cc5)C4=O)ccc2C(F)(F)F)C3)c1` [Compound 104, (5R)-5-(4-fluorophenyl)-2-imino-3-[3-{[2-(3-methylphenyl)-5,7-dihydro-6H-pyrrolo[3,4-d]pyrimidin-6-yl]carbonyl}-4-(trifluoromethyl)benzyl]-5-(4,4,4-trifluorobutyl)imidazolidin-4-one] stands 24.2 nM.

For the compound `N=C1N[C@@](c2ccc(F)cc2)(C2CCOCC2)C(=O)N1C1CCCc2ccc(C(=O)N3Cc4nccnc4C3)cc21` (stereo in doubt) [Compound 130, (5R)-3-[(1R)-7-(5,7-dihydro-6H-pyrrolo[3,4-b]pyrazin-6-ylcarbonyl)-1,2,3,4-tetrahydronaphthalen-1-yl]-5-(4-fluorophenyl)-2-imino-5-(tetrahydro-2H-pyran-4-yl)imidazolidin-4-one], the 50% inhibitory concentration (IC50) was determined as 80.5 nM.

In the case of `N=C1NC(c2ccccc2)(c2ccccc2)C(=O)N1Cc1cc(C(=O)N2Cc3nccnc3C2)cs1` [Compound 407, 3-{[4-(5,7-dihydro-6H-pyrrolo[3,4-b]pyrazin-6-ylcarbonyl)thiophen-2-yl]methyl}-2-imino-5,5-diphenylimidazolidin-4-one], the IC50 was determined as 73.8 nM. Under `Cc1nocc1-c1ncc2c(n1)CN(C(=O)c1cc(CN3C(=N)N[C@](CCCC(F)(F)F)(c4ccc(F)cc4)C3=O)ccc1C(F)(F)F)C2` [Compound 60, (5R)-5-(4-fluorophenyl)-2-imino-3-[3-{[2-(3-methylisoxazol-4-yl)-5,7-dihydro-6H-pyrrolo[3,4-d]pyrimidin-6-yl]carbonyl}-4-(trifluoromethyl)benzyl]-5-(4,4,4-trifluorobutyl)imidazolidin-4-one] stands 6.55 nM. For `CC(=O)N1CCN(C(=O)c2cccc(CN3C(=N)NC(c4ccc(F)cc4)(c4ccc(F)cc4)C3=O)c2)CC1` [Compound 335, 3-{3-[(4-acetylpiperazin-1-yl)carbonyl]benzyl}-5,5-bis(4-fluorophenyl)-2-iminoimidazolidin-4-one], the IC50 was 70.5 nM. The result for `CCCC1(c2ccccc2)NC(=N)N(Cc2cccc(C(=O)N3Cc4cncnc4C3)c2)C1=O` (centres unmarked) [Compound 302, 3-[3-(5,7-dihydro-6H-pyrrolo[3,4-d]pyrimidin-6-ylcarbonyl)benzyl]-2-imino-5-phenyl-5-propylimidazolidin-4-one] reads 45.4 nM. On to `N=C1NC(c2ccc(F)cc2)(c2ccc(F)cc2)C(=O)N1Cc1cncc(C(=O)N2Cc3ccccc3C2)c1` [Compound 394, 3-{[5-(1,3-dihydro-2H-isoindol-2-ylcarbonyl)pyridin-3-yl]methyl}-5,5-bis(4-fluorophenyl)-2-iminoimidazolidin-4-one], for which the concentration for half-maximal inhibition (IC50) is 93.1 nM. `COC(=O)Nc1ncc2c(n1)CN(C(=O)c1cccc(CN3C(=N)NC(c4ccc(F)cc4)(c4ccc(F)cc4)C3=O)c1)C2` [Compound 189, methyl {6-[(3-{[4,4-bis(4-fluorophenyl)-2-imino-5-oxoimidazolidin-1-yl]methyl}phenyl)carbonyl]-6,7-dihydro-5H-pyrrolo[3,4-d]pyrimidin-2-yl}carbamate]: the half-maximal inhibitory concentration (IC50) stood at 3.83 nM. Under `N=C1NC(c2ccccc2)(c2ccccc2)C(=O)N1Cc1cccc(C(=O)N2CCn3c(Cc4ccccc4)cnc3C2)c1` [Compound 337, 3-{3-[(3-benzyl-5,6-dihydroimidazo [1,2-a]pyrazin-7(8H)-yl)carbonyl]benzyl}-2-imino-5,5-diphenylimidazolidin-4-one] stands 72 nM. The result for `N=C1NC(CCC2CC2)(c2cc(F)cc(F)c2)C(=O)N1Cc1ccc(C(F)(F)F)c(C(=O)N2CCn3c(nnc3C(F)(F)F)C2)c1` (centres unmarked) [Compound 91, 5-(2-cyclopropylethyl)-5-(3,5-difluorophenyl)-2-imino-3-[4-(trifluoromethyl)-3-{[3-(trifluoro-methyl)-5,6-dihydro[1,2,4]triazolo-[4,3-a]pyrazin-7(8H)-yl]carbonyl}-benzyl]imidazolidin-4-one] reads 16.3 nM; that for `COc1ccc2c(c1)CCN(C(=O)c1cc(CN3C(=N)NC(CCC(C)C)(c4ccccc4)C3=O)ccc1C(F)(F)F)CC2` (centres unmarked) [Compound 154, 2-imino-3-{3-[(7-methoxy-1,2,4,5-tetrahydro-3H-3-benzazepin-3-yl)carbonyl]-4-(trifluoromethyl)-benzyl}-5-(3-methylbutyl)-5-phenylimidazolidin-4-one], 10.2 nM; that for `N=C1NC(c2ccccc2)(c2ccccc2)C(=O)N1Cc1ccc(F)c(C(=O)N2Cc3cncnc3C2)c1` [Compound 385, 3-[3-(5,7-dihydro-6H-pyrrolo[3,4-d]pyrimidin-6-ylcarbonyl)-4-fluorobenzyl]-2-imino-5,5-diphenylimidazolidin-4-one], 25.8 nM. As for `CC(C)CCC1(c2ccc(F)cc2)NC(=N)N(Cc2ccc(C(F)(F)F)c(C(=O)N3Cc4cncnc4C3)c2)C1=O` (centres unmarked) [Compound 144, 3-[3-(5,7-dihydro-6H-pyrrolo[3,4-d]pyrimidin-6-ylcarbonyl)-4-(trifluoromethyl)benzyl]-5-(4-fluorophenyl)-2-imino-5-(3-methylbutyl)imidazolidin-4-one], the IC50 turned out to be 3.73 nM. Under `CC(C)CC1(c2ccccc2)NC(=N)N(Cc2cccc(C(=O)N3Cc4cccnc4C3)c2)C1=O` (centres unmarked) [Compound 259, 3-[3-(5,7-dihydro-6H-pyrrolo[3,4-b]pyridin-6-ylcarbonyl)benzyl]-2-imino-5-(2-methylpropyl)-5-phenylimidazolidin-4-one] stands 22.6 nM. Under `CC(C)CCC1(c2ccccc2)NC(=N)N(Cc2ccc(C(F)(F)F)c(C(=O)N3CCC(F)(F)C3)c2)C1=O` (centres unmarked) [Compound 162, 3-{3-[(3,3-difluoropyrrolidin-1-yl)carbonyl]-4-(trifluoromethyl)-benzyl}-2-imino-5-(3-methylbutyl)-5-phenylimidazolidin-4-one] stands 32.2 nM; under `CC(C)CCC1(c2ccc(F)cc2)NC(=N)N(Cc2ccc(C(F)(F)F)c(C(=O)N3Cc4cncnc4C3)c2)C1=O` (centres unmarked) [Compound 167, 3-[3-(5,7-dihydro-6H-pyrrolo[3,4-d]pyrimidin-6-ylcarbonyl)-4-(trifluoromethyl)benzyl]-5-(4-fluorophenyl)-2-imino-5-(3-methylbutyl)imidazolidin-4-one], 36.9 nM; under `CCOC(=O)c1cn2c(n1)CN(C(=O)c1cccc(CN3C(=N)NC(c4ccccc4)(c4ccccc4)C3=O)c1)CC2` [Compound 245, ethyl 7-({3-[(2-imino-5-oxo-4,4-diphenylimidazolidin-1-yl)methyl]phenyl}carbonyl)-5,6,7,8-tetrahydroimidazo[1,2-a]pyrazine-2-carboxylate], 17.1 nM.

Regarding `N=C1N[C@](CCCC(F)(F)F)(c2ccc(F)cc2)C(=O)N1Cc1ccc(C(F)(F)F)c(C(=O)N2Cc3cnc(C(F)(F)F)nc3C2)c1` [Compound 73, (5R)-5-(4-fluorophenyl)-2-imino-5-(4,4,4-trifluorobutyl)-3-[4-(trifluoromethyl)-3-{[2-(trifluoro-methyl)-5,7-dihydro-6H-pyrrolo-[3,4-d]pyrimidin-6-yl]carbonyl}-benzyl]imidazolidin-4-one], the concentration for half-maximal inhibition (IC50) is 9.29 nM. Under `N=C1NC(c2ccccc2)(c2ccccc2)C(=O)N1Cc1cccc(C(=O)N2CCN(c3ccccc3)CC2)c1` [Compound 324, 2-imino-5,5-diphenyl-3-{3-[(4-phenylpiperazin-1-yl)carbonyl]benzyl} imidazolidin-4-one] stands 57.7 nM; under `Cc1nc2c([nH]1)CN(C(=O)c1cccc(CN3C(=N)NC(CCC(C)C)(c4ccccc4)C3=O)c1)C2` (centres unmarked) [Compound 257, 2-imino-5-(3-methylbutyl)-3-{3-[(2-methyl-4,6-dihydropyrrolo[3,4-d]imidazol-5(1H)-yl)carbonyl]benzyl}-5-phenylimidazolidin-4-one], 21.2 nM. The result for `CC(C)CC1(c2ccccc2)NC(=N)N(Cc2ccc(C(F)(F)F)c(C(=O)N3CCC3)c2)C1=O` (centres unmarked) [Compound 179, 3-[3-(azetidin-1-ylcarbonyl)-4-(trifluoromethyl)benzyl]-2-imino-5-(2-methylpropyl)-5-phenylimidazolidin-4-one] reads 78.6 nM.

As for `CC(C)CCC1(c2ccccc2)NC(=N)N(Cc2cccc(C(=O)N3CCN(C)C(=O)C3)c2)C1=O` (centres unmarked) [Compound 283, 4-[(3-{[2-imino-4-(3-methylbutyl)-5-oxo-4-phenylimidazolidin-1-yl]methyl}phenyl)carbonyl]-1-methylpiperazin-2-one], the half-maximal inhibitory concentration (IC50) turned out to be 31.8 nM.

Regarding `CN(C)C(=O)c1nc2n(c1Cl)CCN(C(=O)c1cccc(CN3C(=N)NC(c4ccccc4)(c4ccccc4)C3=O)c1)C2` [Compound 327, 3-chloro-7-({3-[(2-imino-5-oxo-4,4-diphenylimidazolidin-1-yl)methyl]phenyl}carbonyl)-N,N-dimethyl-5,6,7,8-tetrahydroimidazo[1,2-a]pyrazine-2-carboxamide], the IC50 came out at 64.2 nM. Under `N=C1N[C@](CCCC(F)(F)F)(c2ccc(F)cc2)C(=O)N1Cc1ccc(C(F)(F)F)c(C(=O)N2Cc3cnc(N)nc3C2)c1` [Compound 57, (5R)-3-{3-[(2-amino-5,7-dihydro-6H-pyrrolo[3,4-d]pyrimidin-6-yl)carbonyl]-4-(trifluoromethyl)-benzyl}-5-(4-fluorophenyl)-2-imino-5-(4,4,4-trifluorobutyl)-imidazolidin-4-one] stands 6.24 nM.
